Where no end group is shown, it is not given here.
Legend:
[1] = test system: uptake of cholera toxin B; format: cell-based
uptake of shiga toxin B = format: cell-based
[2] = test system: β1 adrenergic receptor internalization in BSC-1 cells; experiment: β adrenergic receptor internalization assay, β1AR; format: cell-based; conditions: 30 µM, 20 min pre-treatment, isoproterenol-induced
[3] = test system: β2 adrenergic receptor internalization in BSC-1 cells; experiment: β adrenergic receptor internalization assay, β2AR; format: cell-based; conditions: 30 µM, 20 min pre-treatment, isoproterenol-induced
[4] = test system: membrane capacitance of NIH 3T3 cells (balance between exocytosis and endocytosis); experiment: Cell capacitance in whole cell patch-clamp; format: cell-based; conditions: 10th minute over 1st minute of whole cell recording; peptides 1 mM; paired t-test
Protocol: Cells were patched with pipettes made of borosilicate glass (GC150F, Harvard Apparatus) and pulled with a vertical Narishige puller (World Precision Instruments). The solution contained (in mM): 130–140 KCH3SO3, 1 EGTA, 0.1 CaCl2, 10–20 HEPES, 4 ATP (sodium or magnesium salt), 0.4 Na-GTP (or GTPγS when indicated), 5 phosphocreatine and 3 sodium ascorbate. pH was adjusted to 7.2 using KOH and osmolarity to ~300 mOsm L^−1. Sodium ascorbate was omitted in earlier recordings but was added for better stability. Chloride ions either came from 2 mM KCl, 10 mM NaCl or 4 mM MgCl2 (when Na-ATP was used) in various trials. All salts were purchased from Sigma-Aldrich. Cells were voltage-clamped at −60 mV with an EPC10 amplifier (HEKA) with series resistance and cell capacitance estimation every 4 s in the whole cell mode. The digital triggers of the amplifier were used to drive the electrovalves for pH changes. Cell viability and dialysis efficiency were made sure of by monitoring […] throughout the recording using the Patchmaster software (HEKA): series resistance should remain below 10 MΩ and holding current should remain above −100 pA. If either of these criteria was not respected (except holding current for recordings in GTPγS, see Supplementary Fig. 3D), the recording was not considered for analysis. On a given experimental day at least one control recording (i.e. without any peptide) was performed to ensure recording quality. All these recordings were pooled in the ‘control’ condition (n = 63 on 42 experimental days). […]
Supplementary Figure 5: Characteristics of the whole cell recordings in the different conditions of this study. A, Scheme of the equivalent electrical circuit of a cell recorded in the whole cell configuration. […]
This is likely due to the activation of GTP dependent trimeric G proteins which activate various channels in the presence of GTPγS, thereby increasing the holding current. […] F, Ratios of Cm recorded during the 10 th minute of recording over Cm recorded during the 1st minute. […]

[5] = test system: clathrin mediated endocytosis (TfR-SEP) in NIH 3T3 cells; experiment: ppH assay combined with patch-clamp dialysis; format: cell-based; conditions: for event frequency ratio f = FWC/FCA: average ± SEM, SEM
Protocol: To do so, we monitored cellular endocytic activity using the ppH assay with new developments for fully automated analysis on a large number of cells (See “Methods” and Supplementary Fig. 4). We combined this assay, which monitors in real time the endocytic activity of cells, with the patch-clamp technique in order to dialyse the relevant peptide at a known concentration inside the cellular cytoplasm to inhibit endocytosis acutely. Each recording consisted of 5 min in cell-attached mode (CA) with no dialysis followed by 10 min in whole cell mode (WC) during which the inhibitors were dialysed (Fig. 5a, b). Each recording therefore had its own internal control condition, i.e., the cell-attached mode, from which we obtained the frequency ratio f = FWC/FCA, where F is the event frequency recorded during the indicated mode. Of note, the electrical parameters of patch clamp recordings were similar in all conditions (Supplementary Fig. 5). To assess the innocuousness of this assay, we monitored the endocytic activity of unperturbed cells vs. cells dialysed with a control solution (see methods for composition). Patching the cells minimally affected their endocytic activity over a 10 min period (event frequency f = 67.3 ± 4.3%, n = 60, vs. 90.7 ± 14.9% in no patching recordings, n = 8, p = 0.58).
NIH 3T3 cells (ECACC 93061524) were cultured in DMEM supplemented with 1% sodium pyruvate, 1% glutamax and 10% fetal calf serum (Invitrogen). Cells were incubated at 37 °C in 5% CO2 until use and subcultured every 2 to 4 days for maintenance up to passage 20. Cells were transfected with 1.5 μg of TfR-SEP plasmid 24 h prior to imaging and patch clamp. Care was taken to find the right balance between sufficient fluorescent signal to allow for proper imaging and reasonable overexpression to diminish potential saturation artefacts. Best results were obtained using Fugene 6 (Promega) as the transfection reagent but Lipofectamine 2000 (Invitrogen) has also been used in this study due to a temporary arrest of Fugene 6 production by the provider. All transfections were performed according to the manufacturers’ recommendations. Four to eight hours after transfection, cells were seeded at a density of ~70,000 cells ml^−1 on 18 mm glass coverslips coated with poly-L-lysine (3 min application of 0.1 mM polylysine (Sigma P2636) in borate buffer, pH 8.0 followed by a quick rinse in PBS) and used the next day.
Fast solution exchange was controlled by electro-valves (Lee company) connected to a theta glass pipette (TG150, Harvard Apparatus) pulled to ∼100-μm tip size using a vertical puller (Narishige, World Precision Instruments) placed above the recorded cell. Cells were alternatively perfused with HEPES or MES buffered saline solutions (HBS/MBS) containing (in mM): 135 NaCl, 5 KCl, 0.4 MgCl2, 1.8 CaCl2, 1 D-glucose and 20 HEPES or MES. The pH was adjusted to 7.4 or 5.5 using NaOH and osmolarity to 310–315 mOsm L^−1 with NaCl.
Cells were patched with pipettes made of borosilicate glass (GC150F, Harvard Apparatus) and pulled with a vertical Narishige puller (World Precision Instruments). The solution contained (in mM): 130–140 KCH3SO3, 1 EGTA, 0.1 CaCl2, 10–20 HEPES, 4 ATP (sodium or magnesium salt), 0.4 Na-GTP (or GTPγS when indicated), 5 phosphocreatine and 3 sodium ascorbate. pH was adjusted to 7.2 using KOH and osmolarity to ~300 mOsm L^−1. Sodium ascorbate was omitted in earlier recordings but was added for better stability. Chloride ions either came from 2 mM KCl, 10 mM NaCl or 4 mM MgCl2 (when Na-ATP was used) in various trials. All salts were purchased from Sigma-Aldrich. Cells were voltage-clamped at −60 mV with an EPC10 amplifier (HEKA) with series resistance and cell capacitance estimation every 4 s in the whole cell mode. The digital triggers of the amplifier were used to drive the electrovalves for pH changes. […]

[6] = target: dD15-N (divalent peptide: two D15 motifs linked through their N termini by PEG linkers); experiment: SPR; biotinylated peptides immobilised (50-90 RU) on biotin CAPture chips, GST-amphSH3 or Ntr-bSUMO-amphSH3 as analyte; 25 °C; 10 mM sodium phosphate pH 7.4, 150 mM NaCl, 0.01% Tween-20; single cycle kinetics, 1:1 Langmuir fit, estimated KDs
[7] = target: GST-amphSH3 (SH3 domain of murine amphiphysin1 fused to glutathione S-transferase) (not stated | murine) (UniProt Q7TQF7); experiment: SEC; analytical size exclusion chromatography, Superdex200 Increase 10/300 GL, PBS + 0.01% Tween-20, 0.75 mL/min
[8] = target: D44 peptide (derived from the dynamin1 PRD, bears motifs A and B); experiment: SPR; biotinylated peptides immobilised (50-90 RU) on biotin CAPture chips, SUMO-amphSH3 as analyte; 25 °C; 10 mM sodium phosphate pH 7.4, 150 mM NaCl, 0.01% Tween-20; steady-state (equilibrium) analysis
[9] = target: dD15-N (divalent peptide: two D15 motifs linked through their N termini by PEG linkers); experiment: as above
[10] = target: dD15-N (divalent peptide: two D15 motifs linked through their N termini by PEG linkers); experiment: as above; remark: listed apart in the source
[11] = target: T1, SUMO-amphSH3 (SH3 domain of murine amphiphysin1 fused to the small ubiquitin-like modifier) (murine, UniProt Q7TQF7 607-686); experiment: as above; conditions: both partners purified
T1 construct: amphiphysin 1, mouse, SH3 domain, residues 607-686, subcloned from pAmph1-mCherry into a modified pET-SUMO vector with a TEV site after the SUMO tag; A TEV cleavage site and multiple cloning site lie between SUMO and the SH3 domain; Monomer by SEC; also called SUMO-SH3; monomeric amphSH3; source: E. coli BL21-CodonPlus (DE3)-RIPL, auto-induction at 16 °C, purified (Ni-NTA, SEC); not shown: SUMO, …
T1 sequence (looked up): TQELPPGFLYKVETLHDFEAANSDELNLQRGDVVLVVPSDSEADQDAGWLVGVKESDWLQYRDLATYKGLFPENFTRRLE

O=C(N/N=C/c1cc(O)c(O)cc1O)c1cc2ccccc2cc1O [Dyngo4a]
inhibition of cholera toxin B uptake [1]: only partially sensitive to inhibition
inhibition of shiga toxin B uptake (uptake of shiga toxin B): only partially sensitive to inhibition
effect on β1AR internalization [2]: fully block
effect on β2AR internalization [3]: fully block

Ac-YALGGAPPVPSRPGASPDPFGPPPQVPSRPNRAPPGVPRITISDP-NH2 (N-terminus and C-terminus assumed) [D44]
change of Cm, Cm(10')/Cm(1') [4]: no significant decrease in Cm
event frequency ratio f = FWC/FCA ([5]; 100 µM peptide in patch pipette, event frequency 8–10 min whole cell over 3–5 min cell attached, same cell, n = 13 (D15)): 41.4 ± 9.6%
event frequency ratio f = FWC/FCA ([5]; 1 mM peptide in patch pipette, event frequency 8–10 min whole cell over 3–5 min cell attached, same cell, n = 22 (D15), 15 (D44), 6 (dD15-C)): 20.6 ± 5.2%
inhibition of endocytosis on dialysis ([5]; peptide dialysed through patch pipette, 3T3 cells, ppH assay): fully inhibited CCV formation

Nc1nc2c(ncn2[C@@H]2O[C@H](COP(=O)(O)OP(=O)(O)OP(O)(O)=S)[C@@H](O)[C@H]2O)c(=O)[nH]1 [GTPγS, reference compound]
change of Cm, Cm(10')/Cm(1') [4]: no significant decrease in Cm
event frequency ratio f = FWC/FCA ([5]; GTP replaced by GTPγS in the pipette solution, n = 4): 11.2 ± 4.1%

Ntr-bSUMO-amphSH3 complex (biotinylated SUMO-amphSH3 bound to tetrameric neutravidin) (from UniProt Q7TQF7 607-686)
Kd [6]: 0.0045 µM

GST-amphSH3 (SH3 domain of murine amphiphysin1 fused to glutathione S-transferase) (from UniProt Q7TQF7 607-686) (domain or fragment)
stoichiometry N [7]: 2
Kd [6]: 0.509 µM

B1: SUMO-amphSH3 (SH3 domain of murine amphiphysin1 fused to the small ubiquitin-like modifier) (domain or fragment)
chain: TQELPPGFLYKVETLHDFEAANSDELNLQRGDVVLVVPSDSEADQDAGWLVGVKESDWLQYRDLATYKGLFPENFTRRLE
Kd [8]: 37 µM
Kd [9]: 66 µM
Kd [10]: 65 µM

B2: D15 peptide (monovalent, from the dynamin1 PRD, holds motif B) (peptide)
chain: PPPQVPSRPNRAPPG-NH2
modifications: also: N-terminal biotin via TTDS spacer (biotinylated form) or N-terminal acetyl (form used in cells)
Kd [11]: 102 ± 2 µM
